The results in this text go back to patent publication US20230002327A1, “SMALL-MOLECULE REGULATOR OF TLR8” (TSINGHUA UNIVERSITY, priority 2019, published 2023).

For one test, the target named is T1, TLR8 (Homo sapiens, UniProt Q9NR97).
T1 construct: host or cells: HEK-Blue hTLR8 (HEK293-derived SEAP reporter cells)
T1 sequence (Q9NR97 27-1041): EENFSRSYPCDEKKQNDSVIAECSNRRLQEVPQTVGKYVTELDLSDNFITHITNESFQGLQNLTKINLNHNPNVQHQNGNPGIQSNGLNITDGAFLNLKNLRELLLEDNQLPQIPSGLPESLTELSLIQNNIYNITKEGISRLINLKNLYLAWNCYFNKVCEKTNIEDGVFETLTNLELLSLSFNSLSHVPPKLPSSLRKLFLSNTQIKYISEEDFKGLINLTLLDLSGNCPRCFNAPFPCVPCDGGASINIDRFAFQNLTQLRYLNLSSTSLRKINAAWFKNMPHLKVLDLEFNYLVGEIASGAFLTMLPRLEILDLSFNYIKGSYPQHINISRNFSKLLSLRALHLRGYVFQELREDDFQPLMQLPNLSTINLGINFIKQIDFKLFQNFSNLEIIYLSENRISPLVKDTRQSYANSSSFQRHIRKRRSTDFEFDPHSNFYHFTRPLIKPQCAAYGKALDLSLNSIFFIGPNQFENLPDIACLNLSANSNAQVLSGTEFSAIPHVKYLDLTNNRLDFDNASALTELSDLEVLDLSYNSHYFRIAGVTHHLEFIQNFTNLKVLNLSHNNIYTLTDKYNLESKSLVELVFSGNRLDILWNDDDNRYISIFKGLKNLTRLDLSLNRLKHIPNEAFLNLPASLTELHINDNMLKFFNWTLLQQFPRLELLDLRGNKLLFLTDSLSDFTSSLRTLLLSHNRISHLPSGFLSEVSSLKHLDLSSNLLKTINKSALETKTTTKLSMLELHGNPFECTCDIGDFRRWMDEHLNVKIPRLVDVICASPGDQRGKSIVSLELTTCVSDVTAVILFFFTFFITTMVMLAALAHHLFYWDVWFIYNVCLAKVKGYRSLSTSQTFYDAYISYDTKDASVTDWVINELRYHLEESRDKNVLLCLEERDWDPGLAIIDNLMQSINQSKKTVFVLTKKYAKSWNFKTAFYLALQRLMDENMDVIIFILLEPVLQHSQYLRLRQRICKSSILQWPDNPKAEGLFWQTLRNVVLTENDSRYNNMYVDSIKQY
In words: Inhibition of R848-induced signaling in HEK-Blue hTLR8 cell line (Quanti-Blue). It counts as cell-based. The following applies: HEK-Blue hTLR8 cell line; for IC50: R848-induced signaling, value ± standard deviation, at least triplicate; for Remaining R848-induced TLR8 signaling (normalized activity; ligand+DMSO = 1, untreated = 0): ligand+DMSO = 100% activity. The method, then:
(§1) HEK Blue hTLR8 cells or HEK Blue hTLR7 cells were cultured in DMEM medium supplemented with 10% fetal bovine serum, penicillin (100 U/mL) and streptomycin ([…]). Thereafter, cells were seeded in 96-well plate (45,000 cells per well), and were cultured for 24 hours in a humidified incubator (37° C., 5% CO2).
After 24 hours, the supernatant and suspending cells were aspirated and replaced with fresh serum-free DMEM.
(§2) After 24 hours, 50 μL of the medium was aspirated from each well and then added to a new 96-well plate, followed by the addition of 50 μL of Quanti-Blue in each well and the incubation at 37° C. in darkness. Changes in color would occur in the […] within 60 minutes, and the absorbance was measured at 620 nm by using the multi-mode plate reader Vrioskan Flash. Inhibition rate (%)=[R848 (OD620)−Compound (OD620)]/[R848 (OD620)−Control (OD620)]×100%. Among these, the control group was only added with the same amount of cells. Finally, the software Prism 6.0 was utilized to plot a graph and calculate IC50 values. Or, the activity of the cells treated with ligand and DMSO was defined as 100% activity, and the activity of the untreated cells was defined as 0% activity.

The next test has as its target T2, TLR7 (Homo sapiens, UniProt Q9NYK1).
T2 construct: host or cells: HEK-Blue hTLR7 (HEK293-derived SEAP reporter cells)
T2 sequence (Q9NYK1 27-1049): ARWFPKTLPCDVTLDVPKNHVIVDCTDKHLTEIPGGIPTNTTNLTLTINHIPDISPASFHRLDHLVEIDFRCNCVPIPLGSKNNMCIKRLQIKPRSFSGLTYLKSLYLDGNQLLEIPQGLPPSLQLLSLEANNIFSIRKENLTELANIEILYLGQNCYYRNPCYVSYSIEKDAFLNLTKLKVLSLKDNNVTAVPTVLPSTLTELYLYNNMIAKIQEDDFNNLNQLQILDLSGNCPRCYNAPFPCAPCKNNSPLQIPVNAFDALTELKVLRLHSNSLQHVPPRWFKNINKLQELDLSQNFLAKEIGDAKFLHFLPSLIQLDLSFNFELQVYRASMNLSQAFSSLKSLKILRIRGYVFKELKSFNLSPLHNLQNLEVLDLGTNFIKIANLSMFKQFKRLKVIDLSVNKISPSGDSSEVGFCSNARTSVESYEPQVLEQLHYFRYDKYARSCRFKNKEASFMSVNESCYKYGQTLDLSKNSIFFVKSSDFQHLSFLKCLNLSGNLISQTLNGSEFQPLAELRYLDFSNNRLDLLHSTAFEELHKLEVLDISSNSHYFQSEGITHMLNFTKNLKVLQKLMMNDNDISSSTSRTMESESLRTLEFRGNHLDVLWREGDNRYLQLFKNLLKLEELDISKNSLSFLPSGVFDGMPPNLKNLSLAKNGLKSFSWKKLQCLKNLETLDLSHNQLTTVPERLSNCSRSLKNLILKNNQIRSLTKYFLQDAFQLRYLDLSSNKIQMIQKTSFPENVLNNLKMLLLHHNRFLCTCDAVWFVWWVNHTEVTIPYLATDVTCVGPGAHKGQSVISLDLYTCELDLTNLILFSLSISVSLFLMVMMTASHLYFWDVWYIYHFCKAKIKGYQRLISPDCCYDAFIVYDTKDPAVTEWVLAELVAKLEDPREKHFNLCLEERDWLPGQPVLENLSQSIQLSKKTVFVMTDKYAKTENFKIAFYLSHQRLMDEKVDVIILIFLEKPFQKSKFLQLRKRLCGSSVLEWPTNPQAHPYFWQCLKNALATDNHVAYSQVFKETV
In words: Inhibition of R848-induced signaling in HEK-Blue hTLR7 cell line (Quanti-Blue). The class given is cell-based. As to the method:
as §1
After 24 hours, the supernatant and suspending cells were aspirated and replaced with fresh serum-free DMEM. Cells were treated with 1 μg/mL of R848 (agonist of TLR7/8) or 5 μg/mL of ssRNA40/LyoVec or 5 μg/mL of ORN06/LyoVec (InvivoGen) and compounds with specified concentrations, and were placed in a humidified incubator (37° C., 5% CO2) for co-culture.
as §2

Usually IC50 stands for the concentration that gives 50% inhibition. Read a high IC50 as weaker potency in that assay. At TLR8, `CSc1nnc(CCCO)n1-c1ccc(Cl)c(Cl)c1Cl` [Compound 22, 3-(5-(methylthio)-4-(2,3,4-trichlorophenyl)-4H-1,2,4-triazole-3-yl)propan-1-ol] gave an IC50 of 600 ± 100 nM.
`Cc1nnc(SCc2c(Cl)cccc2Cl)n1-c1cccc(F)c1` [Compound 2, 3-((2,6-dichlorobenzyl)thio)-4-(3-fluorophenyl)-5-methyl-4H-1,2,4-triazole] showed an IC50 at TLR8 of 6180 ± 290 nM.
`CSc1nnc(CCCO)n1-c1cccc(Cl)c1` [Compound 18, 3-(4-(3-chlorophenyl)-5-(methylthio)-4H-1,2,4-triazole-3-yl)propan-1-ol] displayed an IC50 on TLR8 of 350 ± 20 nM. This IC50 is about 18-fold lower than that of the compound before.
The compound `CSc1nnc(CCO)n1-c1ccc(Cl)cc1Cl` [Compound 4, 2-(4-(2,4-dichlorophenyl)-5-(methylthio)-4H-1,2,4-triazole-3-yl)ethan-1-ol] had an IC50 on TLR8 of 590 ± 30 nM.
Regarding `CSc1nnc(CCCO)n1-c1ccccc1Cl` [Compound 17, 3-(4-(2-chlorophenyl)-5-(methylthio)-4H-1,2,4-triazole-3-yl)propan-1-ol], half-maximal inhibition against TLR8 (IC50) required 980 nM.
Same read-out and setting: the same measure for `CSc1nnc(CCCO)n1-c1ccc(Cl)c(Cl)c1` [Compound 19, 3-(4-(3,4-dichlorophenyl)-5-(methylthio)-4H-1,2,4-triazole-3-yl)propan-1-ol]: 190 ± 10 nM; for `CCCc1nnc(SC)n1-c1ccc(Cl)cc1Cl` [Compound 7, 4-(2,4-dichlorophenyl)-3-(methylthio)-5-propyl-4H-1,2,4-triazole]: 630 ± 20 nM; for `CSc1nnc(CCCO)n1-c1cc(Cl)c(Cl)c(Cl)c1` [Compound 23, 3-(5-(methylthio)-4-(3,4,5-trichlorophenyl)-4H-1,2,4-triazole-3-yl)propan-1-ol]: 110 ± 10 nM.
On the same count and under the same terms, the same measure for `CSc1nnc(CCCO)n1-c1c(Cl)cc(Cl)cc1Cl` [Compound 21, 3-(5-(methylthio)-4-(2,4,6-trichlorophenyl)-4H-1,2,4-triazole-3-yl)propan-1-ol]: 2810 ± 440 nM.
At TLR8, `OCCCCc1nnc(SCc2c(Cl)cccc2Cl)n1-c1ccc(F)cc1F` [Compound 34, 4-(5-((2,6-dichlorobenzyl)thio)-4-(2,4-difluorophenyl)-4H-1,2,4-triazole-3-yl)butan-1-ol] displayed a concentration for half-maximal inhibition (IC50) of 11400 ± 700 nM.
`Fc1cccc(-n2cnnc2SCc2c(Cl)cccc2Cl)c1` [Compound 1, 3-((2,6-dichlorobenyl)thio)-4-(3-fluorophenyl)-4H-1,2,4-triazole] registered an IC50 at TLR8 of 1950 ± 190 nM. Compared with the last compound, the IC50 is about 5.8-fold lower.
`OCCCc1nnc(SCc2c(Cl)cccc2Cl)n1-c1ccc(F)cc1F` [Compound 33, 3-(5-((2,6-dichlorobenzyl)thio)-4-(2,4-difluorophenyl)-4H-1,2,4-triazole-3-yl)propan-1-ol] showed an IC50 on TLR8 of 8440 ± 780 nM.
Turning to `CCOCc1nc(-c2ccccc2)c(-c2ccccc2)n1CC(C)(C)O` [Compound 49, 1-[2-(ethoxymethyl)-4,5-diphenyl-1H-imidazole-1-yl]-2-methylpropan-2-ol], the “Remaining R848-induced TLR8 signaling (normalized activity; ligand+DMSO = 1, untreated = 0)” value at TLR8 is 0.6 ± 0.0. The “TLR7 (normalized inhibitory effect on R848-induced signaling)” value on TLR7 was determined as 0.8 ± 0.0.
For `CCOCc1nc(C(C)(C)O)c(-c2ccccc2)n1CC(C)(C)O` [Compound 47, 1-[2-(ethoxymethyl)-4-(2-hydroxypropan-2-yl)-5-phenyl-1H-imidazole-1-yl]-2-methylpropan-2-ol], in that order: 0.9 ± 0.1 and 0.8 ± 0.0.
On to `CSc1nnc(CCCO)n1-c1cnc2ccccc2c1` [Compound 36, 3-(5-(methylthio)-4-(quinolin-3-yl)-4H-1,2,4-triazole-3-yl)propan-1-ol], for which the IC50 on TLR8 came out at 740 nM.
The same measure, in the same setting: the same measure for `CSc1nnc(CCCO)n1-c1ccc2ncccc2c1` [Compound 37, 3-(5-(methylthio)-4-(quinolin-6-yl)-4H-1,2,4-triazole-3-yl)propan-1-ol]: 650 ± 10 nM; for `OCCCc1nnc(SCC2CC2)n1-c1ccc(Cl)cc1Cl` [Compound 13, 3-(5-((cyclopropylmethyl)thio)-4-(2,4-dichlorophenyl)-4H-1,2,4-triazole-3-yl)propan-1-ol]: 8010 ± 130 nM; for `CSc1nnc(CCCO)n1-c1ccc(C(F)(F)F)cc1` [Compound 26, 3-(5-(methylthio)-4-(4-(trifluoromethyl)phenyl)-4H-1,2,4-triazole-3-yl)propan-1-ol]: 4840 ± 820 nM.
Still for that read-out and setting: next, `CC(C)Sc1nnc(CCCO)n1-c1ccc(Cl)cc1Cl` [Compound 12, 3-(4-(2,4-dichlorophenyl)-5-(isopropylthio)-4H-1,2,4-triazole-3-yl)propan-1-ol]: 10100 ± 800 nM.
As for `CSc1nnc(CCCO)n1-c1ccc(F)cc1F` [Compound 15, 3-(4-(2,4-difluorophenyl)-5-(methylthio)-4H-1,2,4-triazole-3-yl)propan-1-ol], the IC50 on TLR8 came to 2130 ± 560 nM.
Consider `CCSc1nnc(CCCO)n1-c1ccc(Cl)cc1Cl` [Compound 11, 3-(4-(2,4-dichlorophenyl)-5-(ethylthio)-4H-1,2,4-triazole-3-yl)propan-1-ol], for which the half-inhibitory concentration (IC50) against TLR8 was found to be 390 ± 40 nM. This IC50 is about 5.5-fold lower than that of the compound before.
Compound `COc1ccc(-n2c(CCCO)nnc2SC)cc1` [Compound 25, 3-(4-(4-methoxyphenyl)-5-(methylthio)-4H-1,2,4-triazole-3-yl)propan-1-ol] displayed an IC50 against TLR8 of 3860 ± 310 nM. This IC50 lies about 9.9-fold higher than the previous one.
Take `CSc1nnc(CCCO)n1-c1cccc(Cl)c1Cl` [Compound 20, 3-(4-(2,3-dichlorophenyl)-5-(methylthio)-4H-1,2,4-triazole-3-yl)propan-1-ol]: the IC50 against TLR8 was determined as 800 ± 70 nM.
`CC(C)Cn1cnc(I)c1-c1ccccc1` [Compound 59, 4-iodo-1-(2-methylpropyl)-5-phenyl-1H-imidazole]: the “Remaining R848-induced TLR8 signaling (normalized activity; ligand+DMSO = 1, untreated = 0)” value at TLR8 amounted to 0.2 ± 0.1. On TLR7, the “TLR7 (normalized inhibitory effect on R848-induced signaling)” value is given as 0.2 ± 0.1.
